# Earlier results, collected in patent US20140296155A1, “ANTI-STRETCH MARK SKIN CREAM AND METHOD FOR MAKING AND USING THEREOF” (priority 2011, published 2014).
# Tested on: Type 1 and Type 3 collagen
compound,measurement,value
"O=C1O[C@H]([C@@H](O)CO)C(O)=C1O [Vitamin C, Ascorbic Acid]",collagen formation over control levels,3-4 fold
